Assay results: patent US9255072B2, “Pyrazole compounds and thiazole compounds as protein kinases inhibitors” (National Health Rsearch Institutes, priority 2011, dated 2016)
Read-outs that look alike come from different tables or passages of the source.

Experiments:
Assay type in all cases: biochemical
[1] = target: T1, wt-FLT3 (Homo sapiens, UniProt P36888); test: FLT3 WT Kinase-Glo assay; settings: FLT3 WT Kinase-Glo, 1 μM ATP; read-out: IC50
T1 construct: FLT3 kinase catalytic domain (residues Y567˜S993); made in house; host or cells: Sf9 insect cells (baculovirus, pBac-PAK8-GST-FLT3-KD plasmid)
T1 sequence (P36888 567-993): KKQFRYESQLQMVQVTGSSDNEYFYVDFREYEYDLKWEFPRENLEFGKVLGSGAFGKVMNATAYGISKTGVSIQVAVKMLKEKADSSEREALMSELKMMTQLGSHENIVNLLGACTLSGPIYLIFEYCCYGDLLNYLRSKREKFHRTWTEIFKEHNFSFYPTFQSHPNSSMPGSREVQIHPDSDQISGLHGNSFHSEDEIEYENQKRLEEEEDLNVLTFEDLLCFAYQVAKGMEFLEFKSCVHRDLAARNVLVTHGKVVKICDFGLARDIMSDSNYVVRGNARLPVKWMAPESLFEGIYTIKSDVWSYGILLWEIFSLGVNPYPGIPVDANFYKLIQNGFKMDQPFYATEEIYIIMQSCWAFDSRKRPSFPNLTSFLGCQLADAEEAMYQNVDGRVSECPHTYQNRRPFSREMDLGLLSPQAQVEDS
Method: GST-FLT3-KD^WT containing the FLT3 kinase catalytic domain (residues Y567˜S993) were expressed in Sf9 insect cells transfected the baculovirus containing pBac-PAK8-GST-FLT3-KD plasmid. […] Following incubation, 50 μl Kinase-Glo Plus Reagent (Promega, Madison, Wis., USA) was added to each well and the mixture was incubated at 25° C. for 20 min. A 70-μL aliquot of each reaction mixture was transferred to a black microtiter plate and the luminescence was measured on Wallac Vector 1420 multilabel counter (PerkinElmer, Shelton, Conn., USA).

[2] = target: T2, VEGFR2 (Homo sapiens, UniProt P35968); test: VEGFR2 Kinase-Glo kinase assay; settings: 1 μM ATP
T2 construct: GST-VEGFR2 (residues V789-V1356); GST (N); made in house; host or cells: Sf9 insect cells
T2 sequence (P35968 789-1356): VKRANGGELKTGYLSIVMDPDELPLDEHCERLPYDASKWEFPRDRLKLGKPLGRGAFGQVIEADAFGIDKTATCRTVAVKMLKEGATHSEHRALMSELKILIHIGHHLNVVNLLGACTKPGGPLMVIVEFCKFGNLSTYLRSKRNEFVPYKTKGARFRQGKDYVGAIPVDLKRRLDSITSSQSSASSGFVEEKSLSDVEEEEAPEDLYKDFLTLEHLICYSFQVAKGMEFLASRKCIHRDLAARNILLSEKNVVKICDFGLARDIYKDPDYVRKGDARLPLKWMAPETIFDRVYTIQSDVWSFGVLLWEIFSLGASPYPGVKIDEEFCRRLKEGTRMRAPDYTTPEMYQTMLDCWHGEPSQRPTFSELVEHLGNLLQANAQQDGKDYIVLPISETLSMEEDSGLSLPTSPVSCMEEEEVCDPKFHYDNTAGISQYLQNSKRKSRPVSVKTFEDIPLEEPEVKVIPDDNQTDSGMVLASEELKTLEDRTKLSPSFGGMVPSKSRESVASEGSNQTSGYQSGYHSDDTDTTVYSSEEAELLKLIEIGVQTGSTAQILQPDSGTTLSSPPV
Method: (§1) The recombinant GST-VEGFR1 (residues R781-I1338) or GST-VEGFR2 (residues V789-V1356) containing kinase domain were expressed in Sf9 insect cells. The kinase assay were carried out in 96-well plates with tested compound in a final volume of 50 μl reaction at 30° C. for 120 minutes with following components: 25 mM HEPES pH 7.4, 10 mM MgCl2, 4 mM MnCl2, 0.5 mM Na3VO4, 2 mM DTT, 0.02% Triton X100, 0.01% BSA, 1 μM ATP, 2 μM polyGlu4:Tyr peptide, 50˜100 ng recombinant VEGFR1 or VEGFR2. Following incubation, 50 μl Kinase-Glo Plus Reagent (Promega, Madison, Wis., USA) was added to each well and the mixture was incubated at 25° C. for 20 min. A 70-μL aliquot of each reaction mixture was transferred to a black microtiter plate and the luminescence was measured on Wallac Vector 1420 multilabel counter (PerkinElmer, Shelton, Conn., USA).

[3] = target: T3, VEGFR1 (Homo sapiens, UniProt P17948); test: VEGFR1 Kinase-Glo kinase assay; settings: 1 μM ATP
T3 construct: GST-VEGFR1 (residues R781-I1338); GST (N); made in house; host or cells: Sf9 insect cells
T3 sequence (P17948 781-1338): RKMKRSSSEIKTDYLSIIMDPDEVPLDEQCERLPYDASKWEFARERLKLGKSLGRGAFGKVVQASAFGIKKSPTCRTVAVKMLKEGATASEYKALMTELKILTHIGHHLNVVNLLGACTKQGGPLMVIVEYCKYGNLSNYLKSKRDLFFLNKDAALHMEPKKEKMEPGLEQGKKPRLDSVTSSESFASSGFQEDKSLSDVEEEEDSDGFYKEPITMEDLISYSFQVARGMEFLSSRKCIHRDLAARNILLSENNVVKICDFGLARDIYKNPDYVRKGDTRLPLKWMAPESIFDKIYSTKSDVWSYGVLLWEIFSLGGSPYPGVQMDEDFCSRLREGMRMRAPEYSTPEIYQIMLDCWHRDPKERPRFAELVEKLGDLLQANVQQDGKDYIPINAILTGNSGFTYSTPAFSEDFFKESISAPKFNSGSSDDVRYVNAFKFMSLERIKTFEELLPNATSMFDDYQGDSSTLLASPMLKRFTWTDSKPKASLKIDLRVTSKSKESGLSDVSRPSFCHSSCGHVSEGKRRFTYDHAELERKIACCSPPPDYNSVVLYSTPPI
Method: as §1

[4] = VEGFR2 assay, bound in μM, read-out: IC50
[5] = VEGFR2 assay, ranges in nM, read-out: IC50
[6] = VEGFR1 assay, bound in μM, read-out: IC50
[7] = VEGFR1 assay, bound in nM, read-out: IC50
[8] = IC50, VEGFR2 assay, bound in μM
[9] = IC50, VEGFR2 assay, ranges in nM
[10] = IC50, VEGFR1 assay, bound in μM

SMILES	IC50 [1]	IC50 [2, 4]	IC50 [2, 5]	further results
CN1CCN(c2ccc(C(=O)Nc3cc(-c4ccc(N)cc4)n[nH]3)cc2)CC1 [Compound 2, N1-[3-(4-aminophenyl)-1H-5-pyrazolyl]-4-(4-methylpiperazino)benzamide]	0.001 to 0.02 µM	–	–	–
Cc1cc(-c2cc(NC(=O)c3ccc(N4CCN(C)CC4)cc3)[nH]n2)ccc1N [Compound 6, N1-[3-(4-amino-3-methylphenyl)-1H-5-pyrazolyl]-4-(4-methylpiperazino)benzamide]	0.001 to 0.02 µM	< 1 µM	0.055 to 0.4 µM	–
CN1CCN(c2ccc(C(=O)Nc3cc(-c4ccc(CNC(=O)c5ccccc5)cc4)n[nH]3)cc2)CC1 [Compound 11, N1-(3-4-[(benzoylamino)methyl]phenyl-1H-5-pyrazolyl)-4-(4-methylpiperazino)benzamide]	0.001 to 0.02 µM	–	–	–
O=C(Nc1cc(-c2cccc(NS(=O)(=O)c3ccccc3)c2)n[nH]1)c1ccc(OCCN2CCCC2)cc1 [Compound 24, N1-(3-3-[(phenylsulfonyl)amino]phenyl-1H-5-pyrazolyl)-4-(2-tetrahydro-1H-1-pyrrolylethoxy)benzamide]	0.001 to 0.02 µM	< 1 µM	0.055 to 0.4 µM	IC50 [3, 6]: < 1 µM
CN1CCN(c2ccc(C(=O)Nc3cc(-c4ccc(NC(=O)Nc5cc(C(C)(C)C)on5)cc4)n[nH]3)cc2)CC1 [Compound 37, N1-(3-4-[([5-(tert-butyl)-3-isoxazolyl]aminocarbonyl)amino]phenyl-1H-5-pyrazolyl)-4-(4-methylpiperazino)benzamide]	0.001 to 0.02 µM	< 1 µM	0.001 to 0.055 µM	IC50 [3, 7]: < 0.1 µM; IC50 [3, 6]: < 1 µM
CN1CCN(c2ccc(C(=O)Nc3cc(-c4ccc(CNC(=O)Nc5ccccc5)cc4)n[nH]3)cc2)CC1 [Compound 51, N1-[3-(4-[(anilinocarbonyl)amino]methylphenyl)-1H-5-pyrazolyl]-4-(4-methylpiperazino)benzamide]	0.001 to 0.02 µM	< 1 µM	0.001 to 0.055 µM	–
Cc1cc(NC(=O)NCc2ccc(-c3cc(NC(=O)c4ccc(OCCN5CCCC5)cc4)[nH]n3)cc2)no1 [Compound 57, N1-(3-4-[([(5-methyl-3-isoxazolyl)amino]carbonylamino)methyl]phenyl-1H-5-pyrazolyl)-4-(2-tetrahydro-1H-1-pyrrolylethoxy)benzamide]	0.001 to 0.02 µM	< 1 µM	0.001 to 0.055 µM	–
CC(C)(C)c1cc(NC(=O)NCc2ccc(-c3cc(NC(=O)c4ccc(OCCN5CCOCC5)cc4)[nH]n3)cc2)no1 [Compound 60, N1-[3-(4-[([5-(tert-butyl)-3-isoxazolyl]aminocarbonyl)amino]methylphenyl)-1H-5-pyrazolyl]-4-(2-morpholinoethoxy)benzamide]	0.001 to 0.02 µM	< 1 µM	0.001 to 0.055 µM	–
CN1CCN(c2ccc(C(=O)Nc3cc(-c4ccc(NC(=O)Oc5ccccc5)cc4)n[nH]3)cc2)CC1 [Compound 68, Phenyl-N-[4-(5-[4-(4-methylpiperazino)benzoyl]amino-1H-3-pyrazolyl)phenyl]carbamate]	0.001 to 0.02 µM	–	–	IC50 [2, 8]: < 1 µM; IC50 [2, 9]: 0.055 to 0.4 µM; IC50 [3, 10]: < 1 µM
O=C(NCc1ccc(-c2cc(NC(=O)c3ccc(OCCN4CCCC4)cc3)[nH]n2)cc1)OCc1ccccc1 [Compound 73, Benzyl-N-[4-(5-[4-(2-tetrahydro-1H-1-pyrrolylethoxy)benzoyl]amino-1H-3-pyrazolyl)benzyl]carbamate]	0.001 to 0.02 µM	< 1 µM	0.055 to 0.4 µM	IC50 [3, 7]: < 0.1 µM; IC50 [3, 6]: < 1 µM
Cc1cc(COC(=O)NCc2ccc(-c3cc(NC(=O)c4ccc(N5CCN(C)CC5)cc4)[nH]n3)cc2)no1 [Compound 75, (5-Methyl-3-isoxazolyl)methyl-N-[4-(5-[4-(4-methylpiperazino)benzoyl]amino-1H-3-pyrazolyl)benzyl]carbamate]	0.001 to 0.02 µM	< 1 µM	0.055 to 0.4 µM	IC50 [3, 6]: < 1 µM
CN1CCN(Cc2ccc(C(=O)Nc3cc(-c4ccc(CNC(=O)OCc5ccccc5)cc4)n[nH]3)cc2)CC1 [Compound 77, Benzyl-N-4-[5-(4-[(4-methylpiperazino)methyl]benzoylamino)-1H-3-pyrazolyl]benzylcarbamate]	0.001 to 0.02 µM	–	–	–
O=C(NCc1ccc(-c2cc(NC(=O)c3ccc(OCCN4CCOCC4)cc3)[nH]n2)cc1)OCc1cccnc1 [Compound 80, 3-Pyridylmethyl-N-[4-(5-[4-(2-morpholinoethoxy)benzoyl]amino-1H-3-pyrazolyl)benzyl]carbamate]	0.001 to 0.02 µM	–	–	–
CN1CCN(c2ccc(C(=O)Nc3cc(-c4ccc(CNC(=O)Oc5ccccc5)cc4)n[nH]3)cc2)CC1 [Compound 82, Phenyl-N-[4-(5-[4-(4-methylpiperazino)benzoyl]amino-1H-3-pyrazolyl)benzyl]carbamate]	0.001 to 0.02 µM	–	–	IC50 [2, 8]: < 1 µM; IC50 [2, 9]: 0.055 to 0.4 µM; IC50 ([3]; IC50, VEGFR1 assay, bound in nM): < 0.1 µM; IC50 [3, 10]: < 1 µM
Cc1nc(Nc2cc(-c3ccc(CNC(=O)OCc4ccccc4)cc3)n[nH]2)cc(N2CCN(C)CC2)n1 [Compound 96, Benzyl-N-[4-(5-[2-methyl-6-(4-methylpiperazino)-4-pyrimidinyl]amino-1H-3-pyrazolyl)benzyl]carbamate]	0.001 to 0.02 µM	< 1 µM	0.055 to 0.4 µM	IC50 [3, 6]: < 1 µM
Cc1nc(Nc2cc(-c3ccc(CNC(=O)OCc4ccccc4)cc3)n[nH]2)cc(N2CCN(CCO)CC2)n1 [Compound 97, Benzyl-N-4-[5-(6-[4-(2-hydroxyethyl)piperazino]-2-methyl-4-pyrimidinylamino)-1H-3-pyrazolyl]benzylcarbamate]	0.001 to 0.02 µM	< 1 µM	0.055 to 0.4 µM	–
Cc1nc(Nc2cc(-c3ccc(CNC(=O)OCc4cc(C)on4)cc3)n[nH]2)cc(N2CCN(C)CC2)n1 [Compound 99, (5-Methyl-3-isoxazolyl)methyl-N-[4-(5-[2-methyl-6-(4-methylpiperazino)-4-pyrimidinyl]amino-1H-3-pyrazolyl)benzyl]carbamate]	0.001 to 0.02 µM	–	–	–
Cc1nc(Nc2cc(-c3ccc(CNC(=O)OCc4cccnc4)cc3)n[nH]2)cc(N2CCN(C)CC2)n1 [Compound 101, 3-Pyridylmethyl-N-[4-(5-[2-methyl-6-(4-methylpiperazino)-4-pyrimidinyl]amino-1H-3-pyrazolyl)benzyl]carbamate]	0.001 to 0.02 µM	–	–	–
